For five molecules, IC50 results are on record in PubChem BioAssay AID1963837 (Molecular Pharmacology Branch, DTP, NCI, 2024).

For orientation: IC50 means the concentration that gives 50% inhibition.

Bounds are passed on as bounds.

The first assay concerns 843126-344-R-J1-PDC complex spheroid viability. The assay is described as follows: Anticancer human tumor 843126-344-R-J1-PDC patient-derived melanoma cell line growth inhibition [POLQ]. To be noted: curve of first compound; second compound 0.0316 µM. The gist of the method: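 Three-cell-type spheroids modelling solid tumor plus stroma served as the readout system; POL inhibitors were tested individually and in combination, concentration ranges set by clinical Cmax where known.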
In the case of `C=CC(=O)N1CCN(c2nc(=O)n(-c3c(C)ccnc3C(C)C)c3nc(-c4c(O)cccc4F)c(F)cc23)C(C)C1` (stereo unspecified) + Nc1ccc(C#CCN(C(=O)Cc2ncc(C(F)(F)F)cc2C(F)(F)F)c2ccc(F)cc2)nn1, the IC50 is above 10 µM.
In the case of `CC(C)n1c(=O)n(C)c2cnc3cc(F)c(-c4ccc(OCCCN5CCCCC5)nc4)cc3c21` + Nc1ccc(C#CCN(C(=O)Cc2ncc(C(F)(F)F)cc2C(F)(F)F)c2ccc(F)cc2)nn1, the IC50 was above 10 µM.
As for `CC1COCCN1c1cc(-c2ccnn2C)c2ccnc(-c3ccn[nH]3)c2n1` (stereo unspecified) + Nc1ccc(C#CCN(C(=O)Cc2ncc(C(F)(F)F)cc2C(F)(F)F)c2ccc(F)cc2)nn1, the IC50 came to 0.943 µM.
On the same count and under the same terms, the same measure for `CCc1cc2c(N3CCc4c(cc(Cn5ccnc5)cc4-c4cn(C)nc4C(F)(F)F)C3=O)ccnc2c(OC)n1` + Nc1ccc(C#CCN(C(=O)Cc2ncc(C(F)(F)F)cc2C(F)(F)F)c2ccc(F)cc2)nn1: above 10 µM.
On the same count and under the same terms, the same measure for `COc1ccc([C@@H](O)c2cc(-c3ncnc4cc(N5CCOCC5)ccc34)c(F)cc2Cl)nn1` + Nc1ccc(C#CCN(C(=O)Cc2ncc(C(F)(F)F)cc2C(F)(F)F)c2ccc(F)cc2)nn1: above 10 µM.

The assay is the same for the next values; noted with them: curve of first compound; second compound 0.1 µM.
As for `C=CC(=O)N1CCN(c2nc(=O)n(-c3c(C)ccnc3C(C)C)c3nc(-c4c(O)cccc4F)c(F)cc23)C(C)C1` (stereo unspecified) + Nc1ccc(C#CCN(C(=O)Cc2ncc(C(F)(F)F)cc2C(F)(F)F)c2ccc(F)cc2)nn1, the IC50 was above 10 µM.
`CC(C)n1c(=O)n(C)c2cnc3cc(F)c(-c4ccc(OCCCN5CCCCC5)nc4)cc3c21` + Nc1ccc(C#CCN(C(=O)Cc2ncc(C(F)(F)F)cc2C(F)(F)F)c2ccc(F)cc2)nn1: the IC50 is above 10 µM.
Turning to `CC1COCCN1c1cc(-c2ccnn2C)c2ccnc(-c3ccn[nH]3)c2n1` (stereo unspecified) + Nc1ccc(C#CCN(C(=O)Cc2ncc(C(F)(F)F)cc2C(F)(F)F)c2ccc(F)cc2)nn1, the IC50 is 1.11 µM.
`CCc1cc2c(N3CCc4c(cc(Cn5ccnc5)cc4-c4cn(C)nc4C(F)(F)F)C3=O)ccnc2c(OC)n1` + Nc1ccc(C#CCN(C(=O)Cc2ncc(C(F)(F)F)cc2C(F)(F)F)c2ccc(F)cc2)nn1: the IC50 was above 10 µM.
In the case of `COc1ccc([C@@H](O)c2cc(-c3ncnc4cc(N5CCOCC5)ccc34)c(F)cc2Cl)nn1` + Nc1ccc(C#CCN(C(=O)Cc2ncc(C(F)(F)F)cc2C(F)(F)F)c2ccc(F)cc2)nn1, the IC50 was above 10 µM.

Still in this assay, the particulars now being: curve of first compound; second compound 0.316 µM.
For `C=CC(=O)N1CCN(c2nc(=O)n(-c3c(C)ccnc3C(C)C)c3nc(-c4c(O)cccc4F)c(F)cc23)C(C)C1` (stereo unspecified) + Nc1ccc(C#CCN(C(=O)Cc2ncc(C(F)(F)F)cc2C(F)(F)F)c2ccc(F)cc2)nn1, the IC50 was above 10 µM.
Turning to `CC(C)n1c(=O)n(C)c2cnc3cc(F)c(-c4ccc(OCCCN5CCCCC5)nc4)cc3c21` + Nc1ccc(C#CCN(C(=O)Cc2ncc(C(F)(F)F)cc2C(F)(F)F)c2ccc(F)cc2)nn1, the concentration for half-maximal inhibition (IC50) is above 10 µM.
Consider `CC1COCCN1c1cc(-c2ccnn2C)c2ccnc(-c3ccn[nH]3)c2n1` (stereo unspecified) + Nc1ccc(C#CCN(C(=O)Cc2ncc(C(F)(F)F)cc2C(F)(F)F)c2ccc(F)cc2)nn1, for which the IC50 was 0.911 µM.
For the molecule `CCc1cc2c(N3CCc4c(cc(Cn5ccnc5)cc4-c4cn(C)nc4C(F)(F)F)C3=O)ccnc2c(OC)n1` + Nc1ccc(C#CCN(C(=O)Cc2ncc(C(F)(F)F)cc2C(F)(F)F)c2ccc(F)cc2)nn1, the 50% inhibitory concentration (IC50) is above 10 µM.
For `COc1ccc([C@@H](O)c2cc(-c3ncnc4cc(N5CCOCC5)ccc34)c(F)cc2Cl)nn1` + Nc1ccc(C#CCN(C(=O)Cc2ncc(C(F)(F)F)cc2C(F)(F)F)c2ccc(F)cc2)nn1, the IC50 is above 10 µM.

The assay is the same for the next values; noted with them: curve of first compound; second compound 1 µM.
Take `C=CC(=O)N1CCN(c2nc(=O)n(-c3c(C)ccnc3C(C)C)c3nc(-c4c(O)cccc4F)c(F)cc23)C(C)C1` (stereo unspecified) + Nc1ccc(C#CCN(C(=O)Cc2ncc(C(F)(F)F)cc2C(F)(F)F)c2ccc(F)cc2)nn1: the IC50 is above 10 µM.
For the molecule `CC(C)n1c(=O)n(C)c2cnc3cc(F)c(-c4ccc(OCCCN5CCCCC5)nc4)cc3c21` + Nc1ccc(C#CCN(C(=O)Cc2ncc(C(F)(F)F)cc2C(F)(F)F)c2ccc(F)cc2)nn1, the IC50 was above 10 µM.
Consider `CC1COCCN1c1cc(-c2ccnn2C)c2ccnc(-c3ccn[nH]3)c2n1` (stereo unspecified) + Nc1ccc(C#CCN(C(=O)Cc2ncc(C(F)(F)F)cc2C(F)(F)F)c2ccc(F)cc2)nn1, for which the IC50 turned out to be 0.738 µM.
As to `CCc1cc2c(N3CCc4c(cc(Cn5ccnc5)cc4-c4cn(C)nc4C(F)(F)F)C3=O)ccnc2c(OC)n1` + Nc1ccc(C#CCN(C(=O)Cc2ncc(C(F)(F)F)cc2C(F)(F)F)c2ccc(F)cc2)nn1, the IC50 is above 10 µM.
On to `COc1ccc([C@@H](O)c2cc(-c3ncnc4cc(N5CCOCC5)ccc34)c(F)cc2Cl)nn1` + Nc1ccc(C#CCN(C(=O)Cc2ncc(C(F)(F)F)cc2C(F)(F)F)c2ccc(F)cc2)nn1, for which the IC50 is above 10 µM.

The assay is the same for the next values; noted with them: curve of first compound; second compound 3.16 µM.
For the molecule `C=CC(=O)N1CCN(c2nc(=O)n(-c3c(C)ccnc3C(C)C)c3nc(-c4c(O)cccc4F)c(F)cc23)C(C)C1` (stereo unspecified) + Nc1ccc(C#CCN(C(=O)Cc2ncc(C(F)(F)F)cc2C(F)(F)F)c2ccc(F)cc2)nn1, the IC50 is above 10 µM.
Consider `CC(C)n1c(=O)n(C)c2cnc3cc(F)c(-c4ccc(OCCCN5CCCCC5)nc4)cc3c21` + Nc1ccc(C#CCN(C(=O)Cc2ncc(C(F)(F)F)cc2C(F)(F)F)c2ccc(F)cc2)nn1, for which the IC50 was above 10 µM.
Still for that read-out and setting: the same measure for `CC1COCCN1c1cc(-c2ccnn2C)c2ccnc(-c3ccn[nH]3)c2n1` (stereo unspecified) + Nc1ccc(C#CCN(C(=O)Cc2ncc(C(F)(F)F)cc2C(F)(F)F)c2ccc(F)cc2)nn1: 0.661 µM; for `CCc1cc2c(N3CCc4c(cc(Cn5ccnc5)cc4-c4cn(C)nc4C(F)(F)F)C3=O)ccnc2c(OC)n1` + Nc1ccc(C#CCN(C(=O)Cc2ncc(C(F)(F)F)cc2C(F)(F)F)c2ccc(F)cc2)nn1: above 10 µM.
On to `COc1ccc([C@@H](O)c2cc(-c3ncnc4cc(N5CCOCC5)ccc34)c(F)cc2Cl)nn1` + Nc1ccc(C#CCN(C(=O)Cc2ncc(C(F)(F)F)cc2C(F)(F)F)c2ccc(F)cc2)nn1, for which the IC50 was above 10 µM.

Staying with this assay, now noted: curve of first compound; second compound 10 µM.
On to `C=CC(=O)N1CCN(c2nc(=O)n(-c3c(C)ccnc3C(C)C)c3nc(-c4c(O)cccc4F)c(F)cc23)C(C)C1` (stereo unspecified) + Nc1ccc(C#CCN(C(=O)Cc2ncc(C(F)(F)F)cc2C(F)(F)F)c2ccc(F)cc2)nn1, for which the 50% inhibitory concentration (IC50) was above 10 µM.
